Test results as given in paper PMC1166555, “The therapeutic effect of the neuropeptide hormone somatostatin on Schistosoma mansoni caused liver fibrosis” (BMC Infectious Diseases, 2005).
Where two headings read alike, the source gives them in different places.

Columns and labels:
S. mansoni = S. mansoni infected animals; cited from earlier work
Description: Taken together we have elucidated the therapeutic capacity of somatostatin in reducing hepatic fibrosis. This report in fact confirms a previous report by Mansy, where using a somatostatin synthetic analog octreotide in S. mansoni infected animals, a reduction in hepatic fibrosis was noted. Since octreotide is limited in binding to somatostatin receptors, our results with natural somatostatin that binds to all 5 somatostatin receptors equally well assures us of the anti fibrotic capacities of this neuropeptide hormone, and points to its potential use in human conditions.

[1] = Pharmacokinetic profile of somatostatin in outbred Swiss mice (plasma, RIA); format: in vivo; conditions: male Swiss mice; for level at 10 min: Swiss (outbred), 25 ug per mouse, 10 minutes post injection, plasma
Description: Separate groups of male Swiss mice were injected with 25 μg of somatostatin (somatostatin-ucb®, UCB Pharma, Brussels) intraperitoneally (in the abdomen) or intravenously (in the caudal vein in the tail). At defined moments after injection (10, 20, 40, 60 minutes) the animals were anaesthetized with Nembutal® (60 mg/kg). The thoracic cavity was cut open and blood collected from the right ventricle of the heart into chilled syringes containing EDTA (1 mg/ml) and Aprotinin (500 KIU/ml blood). The collected blood was centrifuged at 3000 rpm for 15 minutes at 0°C. The plasma was immediately frozen at -80°C freezer. Untreated naïve mice were also bled to ascertain background levels of somatostatin.
(§1) The measurement of somatostatin concentrations in the Swiss mice plasma was carried out in the laboratory of Gastro-intestinal Hormones, at Gasthuisberg, K.U. Leuven, by means of a radio-immuno assay (RIA). The RIA was performed by incubating the samples with 1.7 pM 3-[^125I] iodotyrosyl^11 somatostatin-14 (specific activity 2000 Ci/mmol, Amersham Pharmacia Biotech, Buckinghamshire, UK) and a rabbit antibody against human SOM [1-14] in a 50 mM sodium phosphate buffer (pH 7.4, 0.25% EDTA, 0.5% charcoal-BSA, 500 U/ml Trasylol) for at least two days at 4°C. At the end of the incubation period the SOM bound to the antibody was separated from the free SOM by adding 500 μl dextran-charcoal followed by centrifugation for 15 min at 3000 rpm. Both fractions were counted in a gamma counter and the results were read from a standard curve (0–250 pg/ml) included in the RIA. The minimal detectable dose was 2.5 pg/ml.
Somatostatin has a very short half-life of 1–3 minutes in man. […] To determine the pharmacokinetic profile in outbred Swiss mice, 25 μg of somatostatin was administered per mouse via the intraperitoneal or intravenous route. To assess the break down in these mice, plasma was collected at regular time intervals and circulating somatostatin levels assayed (Figure 2). At 10 minutes post injection somatostatin levels fall to 30233 pg/ml (IP) and 17413 pg/ml (IV).

[2] = Circulating somatostatin levels in plasma at sacrifice, one week after therapy (RIA); format: in vivo, Swiss mice; conditions: for level at 168 h: Swiss, mouse, plasma
Description: (§2) Groups of Swiss mice were infected with 100 S. mansoni cercariae each as mentioned above. Age matched mice were maintained as uninfected control animals. Groups of 10 mice composed Group 1 that were maintained till 10 weeks following infection, other 10 mice composed Group 2 that were maintained till 14 weeks of infection.
(§3) At such times animals of Groups 1 and 2 were treated with somatostatin (Somatostatine-ucb®), that was kindly gifted by UCB Pharma, Brussels. Somatostatin was administered in two regimens – a one-day treatment or a two-day treatment. One day treatment consisted of 3 doses of 30 μg somatostatin each, two day treatment was the double of this dose, that is 6 doses of 30 μg somatostatin to each animal. Somatostatin was administered intravenously via the caudal vein in the tail and intraperitoneally at regular intervals during the day. One week after the last somatostatin administration, mice were killed, the weight of the animal, liver and spleen were noted, plasma was extracted and stored as mentioned above, and the liver frozen immediately in liquid nitrogen and then at -80°C. The overall planning is depicted in Table 1. Untreated animals of the acute and chronic stage were also sacrificed at the respective times together with their treated counterparts. Research protocols involving rodents received ethical clearance by the University of Antwerp ethical committee.
as §1

[3] = Liver, spleen and total body weight after somatostatin treatment; format: in vivo, Swiss mice
Description: as §2, §3
All animals of Groups I and II were controlled for liver, spleen and total body weight, before sacrifice. The adult worms were recovered from the hepatic portal system and the liver by perfusion with citrate saline (0.85% sodium chloride; 1.5% sodium citrate). The livers were cut out and snap frozen in liquid nitrogen. For cyosectioning, liver fragments were embedded in Tissue-Tek OCT compound, 4 μm thick transverse sections were cut on a cryostat, mounted on slides coated with 0.1% ploy-L-lysine and stored at -20°C until use. To study parasite egg count, hepatocyte status, granuloma size and cellularity, series of sections were stained with Haematoxylin-eosin stain.

[4] = Toxicity of somatostatin administration in the study mice; format: in vivo; conditions: Swiss mice, 90 μg/24 hours, mice about 40 g
Description: as §3
The favorable metabolic profile of somatostatin is further supported by the fact that this compound has a very short half-life, and thus any undesirable effects may be rapidly reversed. In our experiment we have used 90 μg/24 hours in the Swiss mice that weighs about 40 g. […]

[5] = cited from earlier work
[6] = dogs, animal studies; cited from earlier work
Description: Somatostatin has a very short half-life of 1–3 minutes in man. […] To determine the pharmacokinetic profile in outbred Swiss mice, 25 μg of somatostatin was administered per mouse via th ...

[7] = rats; cited from earlier work
[8] = studies in mice; cited from earlier work
Description: The favorable metabolic profile of somatostatin is further supported by the fact that this compound has a very short half-life, and thus any undesirable effects may be rapidly reversed. In our experiment we have used 90 μg/24 hours in the Swiss mice that weighs about 40 g. In humans the therapeutic dose is 3.5 μg/kg/hour or 6 mg/24 h for a 75 kg person. A comparison of these values tells ...

[9] = acute (wk 10) infected mice, 1 day SOM treatment, one week post treatment, RIA, untreated 297.3 ± 37.24
[10] = acute (wk 10) infected mice, 2 day SOM treatment, one week post treatment, RIA, untreated 297.3 ± 37.24, p = 0.28
[11] = chronic (wk 14) infected mice, 1 day SOM treatment, one week post treatment, RIA, untreated 206.1 ± 13.30
[12] = chronic (wk 14) infected mice, 2 day SOM treatment, one week post treatment, RIA, untreated 206.1 ± 13.30, p = 0.06 (BL)
[13] = uninfected mice (17 wks.), 2 day SOM treatment, Group 1, RIA
[14] = uninfected mice (21 wks.), 2 day SOM treatment, Group 2, RIA

octreotide
hepatic fibrosis (S. mansoni): reduction

C[C@H](N)C(=O)NCC(=O)N[C@H]1CSSC[C@@H](C(=O)O)NC(=O)[C@H](CO)NC(=O)[C@H]([C@@H](C)O)NC(=O)[C@H](Cc2ccccc2)NC(=O)[C@H]([C@@H](C)O)NC(=O)[C@H](CCCCN)NC(=O)[C@H](Cc2c[nH]c3ccccc23)NC(=O)[C@H](Cc2ccccc2)NC(=O)[C@H](Cc2ccccc2)NC(=O)[C@H](CC(N)=O)NC(=O)[C@H](CCCCN)NC1=O [somatostatin]
level at 10 min ([1]; ip, 25 μg somatostatin per mouse intraperitoneally, read-out: circulating somatostatin level in plasma at 10 minutes post injection (IP)): 30.2 ng/mL | level at 10 min ([1]; iv, 25 μg somatostatin per mouse intravenously (caudal vein), read-out: circulating somatostatin level in plasma at 10 minutes post injection (IV)): 17.4 ng/mL | circulating somatostatin level after one hour of injection ([1]; 25 μg per mouse, IP or IV, one hour after injection): reaches baseline control levels | level at 168 h [2, 9]: 0.24 ± 0.0213 ng/mL | level at 168 h [2, 10]: 0.234 ± 0.0236 ng/mL | level at 168 h [2, 11]: 0.226 ± 0.00541 ng/mL | level at 168 h [2, 12]: 0.248 ± 0.0131 ng/mL | level at 168 h [2, 13]: 0.137 ± 0.0117 ng/mL | level at 168 h [2, 14]: 0.152 ± 0.0415 ng/mL | level at 168 h ([2]; uninfected mice, 1 day SOM treatment, Group 2, RIA): 0.132 ± 0.0193 ng/mL | somatostatin level in plasma [2, 9]: 240.3 pg/mL | somatostatin level in plasma [2, 10]: 234.2 pg/mL | somatostatin level in plasma [2, 11]: 226.3 pg/mL | somatostatin level in plasma [2, 12]: 247.9 pg/mL | somatostatin level in plasma [2, 13]: 136.9 pg/mL | somatostatin level in plasma [2, 14]: 151.6 pg/mL | change in liver weight ([3]; acute and chronic infected animals after 2 days of somatostatin treatment vs untreated, p = 0.19, 0.90): no significant change | change in spleen weight ([3]; acute and chronic infected animals after 2 days somatostatin treatment vs untreated, p = 0.28, 0.73): no significant changes | change in total body weight ([3]; acute or chronic infected animals after somatostatin treatment): no significant changes | toxicity of somatostatin administration [4]: little toxicity | time to reach plasma plateau ([5]; healthy volunteers, intravenous infusion 250 μg/hour or 6 mg/24 hours): ≤ 15 min | plasma plateau level ([5]; healthy volunteers, intravenous infusion of therapeutic dose (250 μg/hour or 6 mg/24 hours)): 300 to 3000 pg/mL | half-life ([5]; in man): 1 to 3 min | plasma profile / half-life compared with man [6]: same profile | time stable in whole blood [7]: up to 30 minutes | LD50 [8]: ~10,000 times the acute therapeutic dose used in humans
